Test results published in patent publication US20160339005A1, “COMPOSITIONS AND METHODS FOR TREATING OCULAR DISEASES” (AKEBIA THERAPEUTICS, INC., priority 2014, published 2016).
Entries after “also recorded” stand apart in the source; their conditions may differ.

Tested on: choroidal neovascularization (CNV)
Experiment: Rodent model of surgically (laser) induced CNV, intravitreal injection, fluorescein angiography lesion areas
Type: in vivo, Brown Norway rats
Set-up: Mean of lesion areas, Left Eye (OS) / Mean of lesion areas, Both Eyes (OU): unit not given here
Settings: for fluorescein leakage in fluorescein angiography images: sample animal
Source text: In one example, twenty-four (24) naïve, male Brown Norway rats, 225-250 g at study start, are acclimated for a minimum of 5 days prior to dosing. Animals are weighed prior to dosing and at euthanasia. All animals undergo pre-screening ophthalmic examinations prior to study start as follows:
CNV is then induced via laser treatment (e.g. laser photocoagulation (20-100-μm spot size; 0.05-0.1 seconds duration; 50 to 200 mW) at six positions of the posterior pole in each eye) by a board certified veterinary ophthalmologist. Only animals in which the laser produces a bubble indicating rupture of Bruch's membrane, are included in the study. The compound is administered in suitable form of a Test Article. Test and Control Article treatment begin 3 days post laser induction. In another experiment, the Test and Control Article treatments begin prior to or immediately post induction, in yet other experiments, Test and Control Article treatments begin 10 days post induction. Study duration is 3 weeks, with the option to extend on a weekly basis based on extent of healing. Animals have clinical ophthalmic examinations and fluorescein angiography approximately 3 days post-induction (prior to Test Article treatment) to confirm disease state. The route of administration for Test Article(s) and vehicle control is intravitreal (IVT) injection on Day 1, which is approximately 3-4 days post-induction, once the CNV disease state has been confirmed.
In the first experiment, a low dose (5 μL at 3.7 mg/mL) and a high dose (5 μL at 7.8 mg/mL) of the compound are evaluated against vehicle control. The three treatment groups are (N=8 per group, 24 animals total):
A. Test Article—Low Dose (19 μg/eye)
B. Test Article—High Dose (39 μg/eye)
Daily gross ocular observations and general health observations are performed. Additional exams, performed weekly up to 3 weeks post Test Article dosing, include clinical ophthalmic exams, slit-lamp biomicroscopy, indirect ophthalmoscopy, and fluorescein staining if needed. Ocular findings are scored using the McDonald-Shadduck scoring system.
Fluorescein angiography (e.g. using Heidelberg SPECTRALIS® instrumentation) is performed to determine the degree of neovascularization (NV) in the retina and/or choroid. After fluorescein angiography, tissues are then harvested for possible future analysis (e.g. eyes are fixed in Davidson's solution and then transferred to 70% ethanol). Alternatively, the area of retinal and/or choroidal NV can be determined in various other ways. In one example, prior to sacrifice, the rodents are perfused with PBS containing 50 mg/mL of fluorescein-labeled dextran (2×10^6 Da average molecular mass). Alternatively, fluorescein-labeled Lycopersicon esculentum (tomato) lectin can be used. The choroids are then flat mounted and examined by fluorescence microscopy. A standard image analysis software is then used to measure the total area of retinal/choroidal NV with the investigator masked with respect to treatment group.
Results from an initial experiment treating animals with a control vehicle, low dose (19 μg/eye), or high dose (39 μg/eye) of Compound 7 are shown in FIGS. 1-6.
Animals were dosed on Day 3. […] The surrounding regions around the laser burn continued to show a higher fluorescence from Days 3-14. Day 9 intensities were attenuated due to the presence of fluorescein in both the anterior and posterior chambers of the eye.
FIGS. 4-6 and Tables 1-3 below show Mean (±SEM) of lesion areas in the right, left and both eyes, respectively.

[1] = High Dose (39 μg/eye, 5 μL at 7.8 mg/mL) IVT, Day 3 (prior to dosing)
[2] = High Dose (39 μg/eye, 5 μL at 7.8 mg/mL) IVT, Day 9
[3] = High Dose (39 μg/eye, 5 μL at 7.8 mg/mL) IVT, Day 14
[4] = High dose (39 μg/eye) IVT, Day 3 (baseline)
[5] = High dose (39 μg/eye) IVT, Day 9
[6] = High dose (39 μg/eye) IVT, Day 14
[7] = Low Dose (19 μg/eye, 5 μL at 3.7 mg/mL) IVT, Day 3 (prior to dosing)
[8] = Low Dose (19 μg/eye, 5 μL at 3.7 mg/mL) IVT, Day 9
[9] = Low Dose (19 μg/eye, 5 μL at 3.7 mg/mL) IVT, Day 14
[10] = Low dose (19 μg/eye) IVT, Day 3 (baseline)
[11] = Low dose (19 μg/eye) IVT, Day 9
[12] = Low dose (19 μg/eye) IVT, Day 14

## O=C(O)CNC(=O)c1ncc(-c2cccc(F)c2)cc1O [Compound 7, {[5-(3-fluorophenyl)-3-hydroxypyridine-2-carbonyl]amino} acetic acid]
[1]
  Mean of lesion areas, Both Eyes (OU): 4.21
  Mean of lesion areas, Left Eye (OS): 3.86
  Mean of lesion areas, Right Eye (OD): 4.56
[2]
  Mean of lesion areas, Both Eyes (OU): 1.71
  Mean of lesion areas, Left Eye (OS): 1.68
  Mean of lesion areas, Right Eye (OD): 1.75
[3]
  Mean of lesion areas, Both Eyes (OU): 0.71
  Mean of lesion areas, Left Eye (OS): 0.84
  Mean of lesion areas, Right Eye (OD): 0.58
[4]
  percentage area reduction of lesion areas, Both Eyes: 0.00%
  percentage area reduction of lesion areas, Left Eye: 0.00%
  percentage area reduction of lesion areas, Right Eye: 0.00%
[5]
  percentage area reduction of lesion areas, Both Eyes: −53.83%
  percentage area reduction of lesion areas, Left Eye: −46.66%
  percentage area reduction of lesion areas, Right Eye: −61.00%
[6]
  percentage area reduction of lesion areas, Both Eyes: −83.63%
  percentage area reduction of lesion areas, Left Eye: −79.77%
  percentage area reduction of lesion areas, Right Eye: −87.49%
[7]
  Mean of lesion areas, Both Eyes (OU): 3.74
  Mean of lesion areas, Left Eye (OS): 3.48
  Mean of lesion areas, Right Eye (OD): 4.01
[8]
  Mean of lesion areas, Both Eyes (OU): 1.84
  Mean of lesion areas, Left Eye (OS): 1.81
  Mean of lesion areas, Right Eye (OD): 1.88
[9]
  Mean of lesion areas, Both Eyes (OU): 0.96
  Mean of lesion areas, Left Eye (OS): 1.02
  Mean of lesion areas, Right Eye (OD): 0.90
[10]
  percentage area reduction of lesion areas, Both Eyes: 0.00%
  percentage area reduction of lesion areas, Left Eye: 0.00%
  percentage area reduction of lesion areas, Right Eye: 0.00%
[11]
  percentage area reduction of lesion areas, Both Eyes: −48.43%
  percentage area reduction of lesion areas, Left Eye: −44.39%
  percentage area reduction of lesion areas, Right Eye: −52.47%
[12]
  percentage area reduction of lesion areas, Both Eyes: −73.63%
  percentage area reduction of lesion areas, Left Eye: −68.00%
  percentage area reduction of lesion areas, Right Eye: −79.25%
Low dose and high dose, FIGS. 4-6 (OD, OS, OU)
  vascular leakage in the ocular vasculature compared with vehicle control (lesion areas over time): reduction of vascular leakage
Low or high doses (19 or 39 μg/eye) IVT
  overall fluorescence and leakage compared to animals treated with vehicle control: reduced overall fluorescence and leakage
High dose (5 μL at 7.8 mg/mL), Day 9
  fluorescein leakage in fluorescein angiography images: Lower fluorescence leakage
High dose (5 μL at 7.8 mg/mL), Day 14
  fluorescein leakage in fluorescein angiography images: no fluorescein leakage was observed; also recorded: no fluorescence leakage
Low dose (5 μL at 3.7 mg/mL), Day 9
  fluorescein leakage in fluorescein angiography images: Lower fluorescence leakage
Low dose (5 μL at 3.7 mg/mL), Day 14
  fluorescein leakage in fluorescein angiography images: almost subsided completely; also recorded: minimal fluorescence leakage
